Assay results published in patent publication US7723562B2, “Mice lacking alpha 1G showing enhanced novelty-seeking and alcohol preference and therapeutic methods for mood disorders by modulating alpha 1G T-type calcium channels” (Korea Institute of Science and Technology, priority 2004, dated 2010).
Entries after “also recorded” stand apart in the source; their conditions may differ.

Test system: α1G−/− transgenic mice
Test: Mobility in an open field after drug treatment (pharmacological analysis)
Type: in vivo, mouse
Settings: 0.5 mg/kg injected into abdominal cavity, FIG. 8
Description: For reactivity test in an open field, a test animal was transferred to a test room one hour before the test began and each animal was put in an independent breeding cage for adaptation.
In order to investigate whether or not mobility increase of α1G−/− transgenic mice is related to diseases such as attention-deficit hyperactive disorder, schizophrenia, stereotype, etc., the present inventors have performed analysis of pharmacological effect of lithium and amphetamine which have been used as a therapeutic agent for the above diseases.
First, the effect of lithium and amphetamine on reactivity to a new subject was investigated. Particularly, one hour before exposing a test animal on an experimental device, lithium or amphetamine (0.5 mg/kg, injection 10 ml/kg) was injected into abdominal cavity of the animal. The test procedure was in accordance with that of reactivity test in an open field, but a breeding cage (24×18×13 cm) took the place of a white acryl open field in this example and a subject used was a styrofoam covered with 0.5 g aluminum foil and the size of which was 1.5×1.5×1.5 cm. Behavior of the animal was all recorded by a video camera for further analysis. Same standard and behavior index were used.

## CC(N)Cc1ccccc1 (centres unmarked) [amphetamine]
  early mobility increase of α1G−/− transgenic mice: not mitigated; also recorded: did not decrease
  non environment dependent mobility increase: over-induced; also recorded: increased excessively
